Reference: ChEMBL document CHEMBL1133780, “Synthesis and antiparasitic activity of 2-(trifluoromethyl)-benzimidazole derivatives” (Bioorg Med Chem Lett, 2001)

Columns and labels:
Rattus norvegicus [1] = species: Rattus norvegicus; assay: Tested for inhibition of tubulin polymerization in rat brain at a concentration of 0.015 uM; type: functional
Giardia intestinalis = assay: In vitro antiprotozoal activity against Giardia lamblia; type: functional, organism-based; conditions: Giardia duodenalis
Rattus norvegicus [2] = species: Rattus norvegicus; assay: Tested for inhibition of tubulin polymerization in rat brain at a concentration of 3*10e-3 uM; type: functional
Entamoeba histolytica = assay: In vitro antiprotozoal activity against Entamoeba histolytica; type: functional, organism-based
Trichinella spiralis [3] = assay: Percent reduction of viability of Trichinella spiralis muscle larvae at a concentration of 3*10e-3 uM; type: functional
Trichinella spiralis [4] = assay: Percent reduction of viability of Trichinella spiralis muscle larvae at a concentration of 3*10e-4 uM; type: functional
Rattus norvegicus [5] = species: Rattus norvegicus; assay: Tested for inhibition of tubulin polymerization in rat brain at a concentration of 0.024 uM; type: functional
Trichinella spiralis [6] = assay: Percent reduction of viability of Trichinella spiralis muscle larvae at a concentration of 3*10e-6 uM; No reduction observed; type: functional, organism-based
Trichinella spiralis [7] = assay: Percent reduction of viability of Trichinella spiralis muscle larvae at a concentration of 3*10e-5 uM; type: functional
Rattus norvegicus [8] = species: Rattus norvegicus; assay: Tested for inhibition of tubulin polymerization in rat brain at a concentration of 3*10e-5 uM; type: functional
Trichinella spiralis [9] = assay: Percent reduction of viability of Trichinella spiralis muscle larvae at a concentration of 3*10e-3 uM; No reduction observed; type: functional, organism-based
Trichinella spiralis [10] = assay: Percent reduction of viability of Trichinella spiralis muscle larvae at a concentration of 3*10e-5 uM; No reduction observed; type: functional, organism-based
Trichinella spiralis [11] = assay: Percent reduction of viability of Trichinella spiralis muscle larvae at a concentration of 3*10e-4 uM; No reduction observed; type: functional, organism-based
Trichinella spiralis [12] = assay: Percent reduction of viability of Trichinella spiralis muscle larvae at a concentration of 3*10e-6 uM; type: functional

Row | SMILES | IC50 (Giardia intestinalis) | IC50 (Entamoeba histolytica) | Viscosity (Rattus norvegicus [1]) | Viscosity (Rattus norvegicus [2]) | Reduction (Trichinella spiralis [3]) | Reduction (Trichinella spiralis [4]) | Viscosity (Rattus norvegicus [5]) | Reduction (Trichinella spiralis [6]) | Reduction (Trichinella spiralis [7]) | Viscosity (Rattus norvegicus [8]) | Reduction (Trichinella spiralis [9]) | Reduction (Trichinella spiralis [10]) | Reduction (Trichinella spiralis [11]) | Reduction (Trichinella spiralis [12])
1 | Cc1ncc([N+](=O)[O-])n1CCO [METRONIDAZOLE] | 1.22 µM | 0.35 µM | – | – | – | – | – | – | – | – | – | – | – | –
2 | Cn1c(C(F)(F)F)nc2ccc(Cl)cc21 | 0.127 µM | 0.008 µM | 7.07 | 7.39 | – | – | 7.26 | No reduction | – | 6.44 | No reduction | No reduction | No reduction | –
3 | CCCSc1ccc2[nH]c(NC(=O)OC)nc2c1 [ALBENDAZOLE] | 0.037 µM | 56.3 µM | – | 2.07 | 30% | 20% | – | – | 13% | 7.04 | – | – | – | 6%
4 | FC(F)(F)c1nc2cc(Cl)ccc2[nH]1 | 1.28 µM | 0.022 µM | 7.14 | 6.7 | – | – | 6.47 | No reduction | – | 6.59 | No reduction | No reduction | No reduction | –
5 | Cn1c(C(F)(F)F)nc2cc(Cl)c(Cl)cc21 | 0.26 µM | 0.033 µM | 6.63 | 7.63 | 15% | 9% | 6.94 | – | 4% | 6.93 | – | – | – | 2%

Continued, in another order:

Row | IC50 (Giardia intestinalis) | IC50 (Entamoeba histolytica) | SMILES | Viscosity (Rattus norvegicus [1]) | Viscosity (Rattus norvegicus [2]) | Reduction (Trichinella spiralis [3]) | Reduction (Trichinella spiralis [4]) | Viscosity (Rattus norvegicus [5]) | Reduction (Trichinella spiralis [6]) | Reduction (Trichinella spiralis [7]) | Viscosity (Rattus norvegicus [8]) | Reduction (Trichinella spiralis [9]) | Reduction (Trichinella spiralis [10]) | Reduction (Trichinella spiralis [11]) | Reduction (Trichinella spiralis [12])
6 | 0.107 µM | 0.069 µM | FC(F)(F)c1nc2ccccc2[nH]1 | 7.34 | 7.56 | 9% | 3% | 6.92 | No reduction | 1% | 7.55 | – | – | – | –
7 | 0.042 µM | 0.046 µM | Cn1c(C(F)(F)F)nc2cc(Cl)ccc21 | 6.94 | 7.58 | 39% | 16% | 7.54 | – | 9% | 7.3 | – | – | – | 2%
8 | 0.078 µM | 0.011 µM | FC(F)(F)c1nc2cc(Cl)c(Cl)cc2[nH]1 | 6.68 | 7.03 | 19% | 9% | 7.22 | No reduction | 1% | 7 | – | – | – | –
9 | 0.064 µM | 0.04 µM | Cn1c(C(F)(F)F)nc2ccccc21 | 7.31 | 7.41 | 12% | 9% | 7.16 | No reduction | 1% | 6.68 | – | – | – | –
